Values quoted from earlier work, collected in US20040131543A1, “Radiopharmaceuticals and radioactive microspheres for locoregional ablation of abnormal tissues” (priority 2002, published 2004).

Conditions: single intratracheal instillation, rats

- Half-life of Gd deposited in lung tissue: extremely long half-life
SMILES: [Cl][Gd]([Cl])[Cl] [GdCl3, Gd chloride]
